Experimental data reported in patent US20090099158A1, “TETRAHYDROISOQUINOLINE COMPOUNDS AS MODULATORS OF THE HISTAMINE H3 RECEPTOR” (priority 2007, published 2009).
pKi: −log10 of the molar value.

Biological target: T1, cloned human H3 receptors (Homo sapiens, UniProt Q9Y5N1)
T1 construct: expressed in transfected cells; host or cells: SK-N-MC cells
Experiment: H3 Receptor Binding (Human)
Details: cloned human H3 receptors stably expressed in SK-N-MC cells; average of the results obtained
Protocol: Binding of compounds to the cloned human H3 receptors, stably expressed in SK-N-MC cells, was performed as described by Barbier, A. J. et al. (Br. J. Pharmacol. 2004, 143(5), 649-661). Data for compounds tested in this assay are presented in Table 1 as an average of the results obtained.

T1 sequence (Q9Y5N1 whole entry): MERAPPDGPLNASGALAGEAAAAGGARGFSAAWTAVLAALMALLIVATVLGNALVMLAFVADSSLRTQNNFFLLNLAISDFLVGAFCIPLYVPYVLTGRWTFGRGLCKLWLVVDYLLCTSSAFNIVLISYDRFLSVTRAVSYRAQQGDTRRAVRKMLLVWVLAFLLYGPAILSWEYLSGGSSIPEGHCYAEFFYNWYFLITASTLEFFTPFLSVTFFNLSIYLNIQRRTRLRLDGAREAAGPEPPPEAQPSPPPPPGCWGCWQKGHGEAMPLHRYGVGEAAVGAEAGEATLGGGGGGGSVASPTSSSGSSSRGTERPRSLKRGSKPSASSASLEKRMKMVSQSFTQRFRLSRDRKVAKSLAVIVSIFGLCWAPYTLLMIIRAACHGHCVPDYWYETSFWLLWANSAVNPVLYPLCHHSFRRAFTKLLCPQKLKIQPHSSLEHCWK

| SMILES | pKi |
| --- | --- |
| O=C(c1ccc2c(c1)CCN(C(=O)c1cccc(Cl)c1)C2)N1CCN(C2CCCCC2)CC1 [Example 76, [2-(3-Chloro-benzoyl)-1,2,3,4-tetrahydro-isoquinolin-6-yl]-(4-cyclohexyl-piperazin-1-yl)-methanone] | 7.00 |
| O=C(c1ccc2c(c1)CCN(C(=O)c1ccc(O)cc1)C2)N1CCN(C2CCC2)CC1 [Example 123, [6-(4-Cyclobutyl-piperazine-1-carbonyl)-3,4-dihydro-1H-isoquinolin-2-yl]-(4-hydroxy-phenyl)-methanone] | 7.80 |
| Cc1ccc(C(=O)N2CCc3cc(C(=O)N4CCN(C5CCCCC5)CC4)ccc3C2)cc1 [Example 83, (4-Cyclohexyl-piperazin-1-yl)-[2-(4-methyl-benzoyl)-1,2,3,4-tetrahydro-isoquinolin-6-yl]-methanone] | 6.59 |
| O=C(C1CCCCC1)N1CCc2cc(CN3CCCCC3)ccc2C1 [Example 166, Cyclohexyl-(6-piperidin-1-ylmethyl-3,4-dihydro-1H-isoquinolin-2-yl)-methanone] | 7.35 |
| COc1cccc(C(=O)N2CCc3cc(C(=O)N4CCC[C@H]4CN4CCCC4)ccc3C2)c1 [Example 59, (S)-(3-Methoxy-phenyl)-[6-(2-Pyrrolidin-1-ylmethyl-pyrrolidine-1-carbonyl)-3,4-dihydro-1H-isoquinolin-2-yl]-methanone] | 7.92 |
| O=C(c1ccc2c(c1)CCN(C(=O)c1ccc(F)cc1)C2)N1CCN(C2CCC2)CC1 [Example 125, (4-Cyclobutyl-piperazin-1-yl)-[2-(4-fluoro-benzoyl)-1,2,3,4-tetrahydro-isoquinolin-6-yl]-methanone] | 7.77 |
| Cc1ccccc1C(=O)N1CCc2cc(C(=O)N3CCN4CCCCC4C3)ccc2C1 (stereo not drawn) [Example 96, [2-(2-Methyl-benzoyl)-1,2,3,4-tetrahydro-isoquinolin-6-yl]-(octahydro-pyrido[1,2-a]pyrazin-2-yl)-methanone] | 7.82 |
| O=C(c1ccc2c(c1)CCN(Cc1ccc(Cl)cc1)C2)N1CCN(C2CCC2)CC1 [Example 17, [2-(4-Chloro-benzyl)-1,2,3,4-tetrahydro-isoquinolin-6-yl]-(4-cyclobutyl-piperazin-1-yl)-methanone] | 7.82 |
| O=C(c1cccc(Cl)c1)N1CCc2cc(C(=O)N3CCN4CCCCC4C3)ccc2C1 (stereo not drawn) [Example 90, [2-(3-Chloro-benzoyl)-1,2,3,4-tetrahydro-isoquinolin-6-yl]-(octahydro-pyrido[1,2-a]pyrazin-2-yl)-methanone] | 7.72 |
| CC(C)S(=O)(=O)N1CCc2cc(C(=O)N3CCN(C4CCC4)CC3)ccc2C1 [Example 102, (4-Cyclobutyl-piperazin-1-yl)-[2-(propane-2-sulfonyl)-1,2,3,4-tetrahydro-isoquinolin-6-yl]-methanone] | 7.60 |
| O=C(c1ccc2c(c1)CCN(S(=O)(=O)c1ccc(F)cc1)C2)N1CCN(C2CCC2)CC1 [Example 104, (4-Cyclobutyl-piperazin-1-yl)-[2-(4-fluoro-benzenesulfonyl)-1,2,3,4-tetrahydro-isoquinolin-6-yl]-methanone] | 7.80 |
| CN(C)[C@@H]1CCN(C(=O)c2ccc3c(c2)CCN(C(=O)C2CCCCC2)C3)C1 [Example 155, (R)-Cyclohexyl-[6-(3-dimethylamino-pyrrolidine-1-carbonyl)-3,4-dihydro-1H-isoquinolin-2-yl]-methanone] | 6.19 |
| O=C(c1ccc2c(c1)CCN(C(=O)c1ccccc1Cl)C2)N1CCN(C2CCCC2)CC1 [Example 68, [2-(2-Chloro-benzoyl)-1,2,3,4-tetrahydro-isoquinolin-6-yl]-(4-cyclopentyl-piperazin-1-yl)-methanone] | 7.49 |
| CC(C)N1CCN(C(=O)c2ccc3c(c2)CCN(Cc2ccc(Cl)c(Cl)c2)C3)CC1 [Example 19, [2-(3,4-Dichloro-benzyl)-1,2,3,4-tetrahydro-isoquinolin-6-yl]-(4-isopropyl-piperazin-1-yl)-methanone] | 7.54 |
| CCCN1CCc2cc(C(=O)N3CCC(C(C)(C)C)CC3)ccc2C1 [Example 182, (4-tert-Butyl-piperidin-1-yl)-(2-propyl-1,2,3,4-tetrahydro-isoquinolin-6-yl)-methanone] | 6.47 |
| COc1ccccc1C(=O)N1CCc2cc(C(=O)N3CCN4CCCCC4C3)ccc2C1 (stereo not drawn) [Example 92, [2-(2-Methoxy-benzoyl)-1,2,3,4-tetrahydro-isoquinolin-6-yl]-(octahydro-pyrido[1,2-a]pyrazin-2-yl)-methanone] | 7.64 |
| O=C(Cc1ccc(F)cc1)N1CCc2cc(C(=O)N3CCN(C4CCCC4)CC3)ccc2C1 [Example 71, 1-[6-(4-Cyclopentyl-piperazine-1-carbonyl)-3,4-dihydro-1H-isoquinolin-2-yl]-2-(4-fluoro-phenyl)-ethanone] | 7.32 |
| CC(C)(O)C1CCN(C(=O)c2ccc3c(c2)CCN(C2CCCC2)C3)CC1 [Example 194, (2-Cyclopentyl-1,2,3,4-tetrahydro-isoquinolin-6-yl)-[4-(1-hydroxy-1-methyl-ethyl)-piperidin-1-yl]-methanone] | 5.57 |

| SMILES | pKi |
| --- | --- |
| COc1ccc(CC(=O)N2CCc3cc(C(=O)N4CCC[C@H]4CN4CCCC4)ccc3C2)cc1 [Example 61] | 8.15 |
| O=C(c1ccc2c(c1)CCN(C(=O)c1ccc([N+](=O)[O-])cc1)C2)N1CCN(C2CCC2)CC1 [Example 122, [6-(4-Cyclobutyl-piperazine-1-carbonyl)-3,4-dihydro-1H-isoquinolin-2-yl]-(4-nitro-phenyl)-methanone] | 8.15 |
| O=C(c1ccc2c(c1)CCN(C(=O)c1ccccc1Cl)C2)N1CCN2CCCCC2C1 (stereo not drawn) [Example 89, [2-(2-Chloro-benzoyl)-1,2,3,4-tetrahydro-isoquinolin-6-yl]-(octahydro-pyrido[1,2-a]pyrazin-2-yl)-methanone] | 7.68 |
| CC(C)N1CCc2cc(C(=O)N3CCN4CCCCC4C3)ccc2C1 (stereo not drawn) [Example 175, (2-Isopropyl-1,2,3,4-tetrahydro-isoquinolin-6-yl)-(octahydro-pyrido[1,2-a]pyrazin-2-yl)-methanone] | 8.70 |
| O=C(c1ccc2c(c1)CCN(C(=O)c1ccc(Cl)cc1Cl)C2)N1CCN(C2CCC2)CC1 [Example 118, [6-(4-Cyclobutyl-piperazine-1-carbonyl)-3,4-dihydro-1H-isoquinolin-2-yl]-(2,4-dichloro-phenyl)-methanone] | 8.10 |
| O=C(c1ccc2c(c1)CCN(C(=O)C1CCCCC1)C2)N1CCN(C2CCCCC2)CC1 [Example 160, Cyclohexyl-[6-(4-cyclohexyl-piperazine-1-carbonyl)-3,4-dihydro-1H-isoquinolin-2-yl]-methanone] | 7.08 |
| O=C(C1CCCCC1)N1CCc2cc(CN3CCOCC3)ccc2C1 [Example 167, Cyclohexyl-(6-morpholin-4-ylmethyl-3,4-dihydro-1H-isoquinolin-2-yl)-methanone] | 5.86 |
| O=C(c1ccc2c(c1)CN(C(=O)C1CCCCC1)CC2)N1CCCN(C2CCC2)CC1 [Example 38, [7-(4-Cyclobutyl-[1,4]diazepane-1-carbonyl)-3,4-dihydro-1H-isoquinolin-2-yl]-cyclohexyl-methanone] | 9.00 |
| CC(C)(C)C(=O)N1CCc2cc(C(=O)N3CCC[C@H]3CN3CCCC3)ccc2C1 [Example 47, (S)-2,2-Dimethyl-1-[6-(2-pyrrolidin-1-ylmethyl-pyrrolidine-1-carbonyl)-3,4-dihydro-1H-isoquinolin-2-yl]-propan-1-one] | 7.80 |
| CN1CCC(N(C)C(=O)c2ccc3c(c2)CCN(C(=O)C2CCCCC2)C3)C1 (stereo not drawn) [Example 161, 2-Cyclohexanecarbonyl-1,2,3,4-tetrahydro-isoquinoline-6-carboxylic acid methyl-(1-methyl-pyrrolidin-3-yl)-amide] | 6.38 |
| CCCN1CCc2cc(C(=O)N3CCCN(C4CCC4)CC3)ccc2C1 [Example 183, (4-Cyclobutyl-[1,4]diazepan-1-yl)-(2-propyl-1,2,3,4-tetrahydro-isoquinolin-6-yl)-methanone] | 9.00 |
| O=C(c1ccc2c(c1)CCN(C(=O)c1ccccc1)C2)N1CCN(C2CCCC2)CC1 [Example 65, (2-Benzoyl-1,2,3,4-tetrahydro-isoquinolin-6-yl)-(4-cyclopentyl-piperazin-1-yl)-methanone] | 7.00 |
| CC(C)(C)OC(=O)N1CCc2cc(C(=O)N3CCN(C4CCCCC4)CC3)ccc2C1 [Example 3, 6-(4-Cyclohexyl-piperazine-1-carbonyl)-3,4-dihydro-1H-isoquinoline-2-carboxylic acid tert-butyl ester] | 6.78 |
| O=C(c1ccc2c(c1)CCN(C(=O)c1ccc(F)cc1)C2)N1CCN(C2CCCCC2)CC1 [Example 74, (4-Cyclohexyl-piperazin-1-yl)-[2-(4-fluoro-benzoyl)-1,2,3,4-tetrahydro-isoquinolin-6-yl]-methanone] | 6.96 |
| O=C(c1ccc2c(c1)CCN(C(=O)C1CCCCC1)C2)N1CCN(C2CCCC2)CC1 [Example 159, Cyclohexyl-[6-(4-cyclopentyl-piperazine-1-carbonyl)-3,4-dihydro-1H-isoquinolin-2-yl]-methanone] | 7.43 |
| O=C(C1CCCCC1)N1CCc2cc(C(=O)N3C[C@@H]4C[C@H]3CN4C3CCC3)ccc2C1 [Example 164, (1S,4S)-(5-Cyclobutyl-2,5-diaza-bicyclo[2.2.1]hept-2-yl)-(2-cyclohexanecarbonyl-1,2,3,4-tetrahydro-isoquinolin-6-yl)-methanone] | 5.94 |
| Cc1cccc(C(=O)N2CCc3cc(C(=O)N4CCN(C5CCC5)CC4)ccc3C2)c1 [Example 120, [6-(4-Cyclobutyl-piperazine-1-carbonyl)-3,4-dihydro-1H-isoquinolin-2-yl]-m-tolyl-methanone] | 7.92 |
| O=C(C1CCCCC1)N1CCc2cc(C(=O)N3CCC[C@H]3CN3CCCC3)ccc2C1 [Example 150, (S)-Cyclohexyl-[6-(2-Pyrrolidin-1-ylmethyl-pyrrolidine-1-carbonyl)-3,4-dihydro-1H-isoquinolin-2-yl]-methanone] | 8.05 |
